From paper PMC8534114, “Molecular Basis of a Dominant SARS-CoV-2 Spike-Derived Epitope Presented by HLA-A*02:01 Recognised by a Public TCR” (Cells, 2021)

How the values were obtained:
CD8+ T cells [1] = type: cell-based, human
CD8+ T cells [2] = conditions: cited from earlier work

**Q.** What does the source list for YLQPRTFLL?
**A.** CD8+ T cell response, overall (CD8+ T cells [1]): all able to generate a polyfunctional CD8+ T cell response; CD8+ T cell response (in words) (CD8+ T cells [2]): strong CD8+ T cell response; CD8+ T cell stimulation (in words) (CD8+ T cells [2]): strongly stimulate CD8+ T cells
